In patent US20090131356A1, “miR-15, miR-26, miR-31, miR-145, miR-147, miR-188, miR-215, miR-216, miR-331, mmu-miR-292-3P REGULATED GENES AND PATHWAYS AS TARGETS FOR THERAPEUTIC INTERVENTION” (ASURAGEN, INC., priority 2006, published 2009):
pIC50: −log10 of the molar value.

Assays:
SCLC and NSCLC cells = details: various lung cancer cells, SCLC and NSCLC (Tsai et al., 1993; Ohsaki et al., 1992); cited from earlier work
[1] = system: Du145 human prostate cancer cells; assay: Long-term growth curve with repeated electroporation, Du145; assay type: cell-based; details: 1.6 μM miRNA electroporated, repeated on days 7 and 14, day 20
Description: The inventors assessed the therapeutic effect of hsa-miR-15a for prostate cancer by using the Du145 human prostate cancer cell line, derived from a brain metastasis (Stone et al., 1978). The inventors conducted growth curve experiments in the presence of miRNA for up to 20 days. Since in vitro transfections of naked interfering RNAs, such as synthetic miRNA, are transient by nature and compromised by the dilution of the miRNA during ongoing cell divisions, miRNA was administered at multiple time points (Bartlett et al., 2006; Bartlett et al., 2007). To accommodate miRNA delivery into a large quantity of cells, the inventors employed the electroporation method for delivery of hsa-miR-15a or negative control miRNA into Du145 human prostate cancer cells. Briefly, 0.5×10^6 Du145 cells were electroporated with 1.6 μM hsa-miR-15a or negative control using the BioRad Gene Pulser Xcell™ instrument (BioRad Laboratories Inc., Hercules, Calif., USA), seeded and propagated in regular growth medium. Experiments were carried out in triplicates. When the control cells reached confluence (days 7 and 14), cells were harvested, counted and electroporated again with the respective miRNAs. To ensure similar treatment of both conditions as well as to accommodate exponential growth, the cell numbers used for the second and third electroporation were titrated down to the lowest count. The population doubling was calculated from these electroporation events using the formula PD=ln(Nf/N0)/ln2 and adjusting for the fact that approximately 72% of newly seeded cells adhere to the plate. Cell counts were extrapolated and plotted on a linear scale (FIG. 10). Arrows represent electroporation days. Standard deviations are included in the graphs.
To evaluate the therapeutic activity of hsa-miR-147 over an extended period of time, the inventors conducted growth curve experiments in the presence of miRNA for up to 21 days. Since in vitro transfections of naked interfering RNAs, such as synthetic miRNA, are transient by nature and compromised by the dilution of the oligo during ongoing cell divisions, miRNA was administered at multiple time points (Bartlett et al., 2006; Bartlett et al., 2007). To accommodate miRNA delivery into a large quantity of cells, the inventors employed the electroporation method to delivery hsa-miR-147 or negative control miRNA into PC3 and Du145 human prostate cancer cells. […] When the control cells reached confluence (days 7 and 14), cells were harvested, counted and electroporated again with the respective miRNAs. […] The population doubling was calculated from these electroporation events using the formula PD=ln(Nf/N0)/ln2 and adjusting for the fact that approximately 72% of newly seeded cells adhere to the plate. […]

RWPE2 cells = assay: Alamar Blue proliferation assay, RWPE2; assay type: cell-based, human; details: 30 nM, normalized to negative control miRNA (100% proliferation)
From the text: The inventors assessed the therapeutic effect of hsa-miR-147 for prostate cancer by using 4 individual human prostate cancer cell lines. To measure cellular proliferation of prostate cancer cells, the following prostate cancer cell lines were used: PPC-1 and PC3, derived from a bone metastasis; Du145, derived from a brain metastasis; RWPE2, derived from prostate cells immortalized by human papillomavirus 18 and transformed by the K-RAS oncogene (Bello et al., 1997; Stone et al., 1978; Brothman et al., 1991). PC3, PPC-1, and Du145 cells lack expression of the prostate-specific antigen (PSA) and are independent of androgen receptor (AR) signaling. In contrast, RWPE2 cells test positive for PSA and AR.
PPC-1, Du145 and RWPE2 cells were transfected with synthetic hsa-miR-147 (Pre-miR™-hsa-miR-147, Ambion cat. no. AM17100) or negative control miRNA (NC; Pre-miR™ microRNA Precursor Molecule-Negative Control #2; Ambion cat. no. AM17111) in a 96-well format using a lipid-based transfection reagent. […] Proliferation was assessed 4-7 days post-transfection using Alamar Blue™ (Invitrogen) following the manufacturer's instructions. […] Fluorescent light units (FLU) were measured after 3 hours, normalized to the control, and plotted as percent change in proliferation. […]

| Compound | pIC50 (SCLC and NSCLC cells) | cells relative to cells electroporated with negative control miRNA [1] | inhibition of Du145 cell growth ([1]; relative to proliferation of control cells (100%)) | % proliferation (RWPE2 cells) |
| --- | --- | --- | --- | --- |
| COc1cc([C@@H]2c3cc4c(cc3[C@@H](O[C@@H]3O[C@@H]5CO[C@@H](C)O[C@H]5[C@H](O)[C@H]3O)[C@H]3COC(=O)[C@H]23)OCO4)cc(OC)c1O [Etoposide, etoposide] | 4.60 to 6.00 | – | – | – |
| hsa-miR-147: Synthetic pre-miR-147 (Ambion AM17100; Dharmacon in vivo); mature sequence GUGUGUGGAAAUGCUUCUGC, MIMAT0000251, SEQ ID NO:114 (synthetic pre-miR (Ambion/Dharmacon), chemistry not given here; listed as Homo sapiens) | – | 2.90% | 97.1% | 79.08% |
